In PMC11100771, “Structural basis of ligand specificity and channel activation in an insect gustatory receptor” (Cell reports, 2024):

Target: T1, Bombyx mori Gr9 (BmGr9) (Bombyx mori, UniProt B3GTD7)
T1 construct: N-terminally Twin-Strep-tagged BmGr9, homotetramer
T1 sequence (B3GTD7 1-449): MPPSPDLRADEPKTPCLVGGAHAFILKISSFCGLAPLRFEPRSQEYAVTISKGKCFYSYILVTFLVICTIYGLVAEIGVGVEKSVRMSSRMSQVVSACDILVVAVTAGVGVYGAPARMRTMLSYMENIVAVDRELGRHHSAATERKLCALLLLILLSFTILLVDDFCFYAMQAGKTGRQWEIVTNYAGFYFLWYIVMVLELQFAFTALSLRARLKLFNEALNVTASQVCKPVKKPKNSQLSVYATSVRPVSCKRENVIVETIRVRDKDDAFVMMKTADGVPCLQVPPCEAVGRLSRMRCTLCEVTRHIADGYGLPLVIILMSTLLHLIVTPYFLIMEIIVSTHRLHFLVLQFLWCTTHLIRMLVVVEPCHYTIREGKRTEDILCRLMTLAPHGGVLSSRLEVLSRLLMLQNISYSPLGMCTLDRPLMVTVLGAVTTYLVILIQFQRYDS
Assay: cryo-EM structure ([…] Å) with […] D-fructose; EC50 by two-electrode voltage clamp in Xenopus oocytes
Format: cell-based

OCC1(O)OC[C@@H](O)[C@@H](O)[C@@H]1O (stereo partly drawn) [D-fructose] showed an EC50 of 22 mM.
